The experiment concerns the target DGKα (Homo sapiens (Human), UniProt P23743). The experiment can be described thus: Measurement of inhibitory effect against DGKα enzyme (ADP-Glo). It is filed as biochemical. As to conditions: DGKα enzyme, ADP-Glo luminescence, OAG/ATP substrate, 20 min room temperature; read-out: IC50. As for the experimental part: Experimental Example: Measurement of Inhibitory Effect Against DGKα Enzyme
First, 3×OAG (3 mM)/ATP (0.45 mM) substrate solution was prepared from 1× substrate assay buffer (40 mM MOPS (pH 7.2), 20 mM MgCl2, 1 mM DTT, 0.4 mM CaCl2), 3 mM sodium deoxycholate, 100 mM NaCl, 0.1 mg/mL BSA, 0.12% NP-40), and vortexed thoroughly for 3 minutes to induce detergent-lipid micelle formation. Then, 3×DGKα (7.5 nM) enzyme solution was prepared from 2× enzyme assay buffer (80 mM MOPS (pH 7.2), 2 mM DTT, 200 mM NaCl, 0.2 mg/mL BSA) and vortexed for a short time.
After preparing the above two solutions, a half-area opaque 96-well assay plate was prepared, and 10 μL of 3× diluted compound solution (30 μM to 0 μM) was transferred to each well. Next, 10 μL of 3×DGK enzyme solution was transferred to the same plate, mixed by pipetting, and then 10 μL of 3×OAG/ATP substrate solution was added to the assay plate and mixed well. The plate was incubated at room temperature for 20 minutes for the enzyme reaction. Next, 15 μL of ADP-Glo reagent was added to each well and mixed by pipetting, followed by incubating the plate at room temperature for 40 minutes to deplete the remaining ATPs. After this step, 30 μL of kinase detection reagent was added and mixed, and the plate was incubated at room temperature for an additional 20 minutes and luminescence was measured by Envision to calculate the IC50 value of each compound.
The measurement results are represented in Table 1 (+: IC50>5 μM, ++: 5 μM>IC50>300 nM, +++: IC50<300 nM).

Data on ten compounds can be found in US20240067645A1, “HETEROCYCLIC COMPOUND AS DIACYLGLYCEROL KINASE INHIBITOR AND USE THEREOF” (LG CHEM, LTD., priority 2020, published 2024).

Molecules are shown by their SMILES.

Chain of DGKα (P23743 whole entry, species assumed): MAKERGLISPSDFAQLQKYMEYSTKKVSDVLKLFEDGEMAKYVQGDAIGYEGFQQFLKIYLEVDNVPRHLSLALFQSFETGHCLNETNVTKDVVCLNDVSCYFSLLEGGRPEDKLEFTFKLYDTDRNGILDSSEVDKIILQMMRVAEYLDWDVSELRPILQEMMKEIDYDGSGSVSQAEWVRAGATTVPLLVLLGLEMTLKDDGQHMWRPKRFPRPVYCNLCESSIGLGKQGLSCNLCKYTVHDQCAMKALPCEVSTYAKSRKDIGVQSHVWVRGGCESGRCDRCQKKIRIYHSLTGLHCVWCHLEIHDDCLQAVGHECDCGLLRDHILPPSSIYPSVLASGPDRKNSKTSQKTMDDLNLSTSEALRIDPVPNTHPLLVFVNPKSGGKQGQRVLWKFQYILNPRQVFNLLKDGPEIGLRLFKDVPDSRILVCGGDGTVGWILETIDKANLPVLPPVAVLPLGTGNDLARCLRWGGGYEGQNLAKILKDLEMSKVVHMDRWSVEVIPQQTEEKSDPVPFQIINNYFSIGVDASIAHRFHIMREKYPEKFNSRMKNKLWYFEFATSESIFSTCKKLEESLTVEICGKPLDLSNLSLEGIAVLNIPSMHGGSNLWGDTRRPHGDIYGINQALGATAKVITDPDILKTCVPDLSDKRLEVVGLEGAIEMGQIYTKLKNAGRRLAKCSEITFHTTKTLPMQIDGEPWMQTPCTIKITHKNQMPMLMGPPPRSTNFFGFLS

On to `CC(C)Oc1ccc2c(n1)n(C1CCN(Cc3ccc(OC(F)(F)F)cc3)CC1)c(=O)c(=O)n2C` [Example 58, 6-isopropoxy-1-methyl-4-(1-(4-(trifluoromethoxy)benzyl)piperidin-4-yl)-1,4-dihydropyrido[2,3-b]pyrazine-2,3-dione], for which the IC50 was more than 5 µM. Next, `Cc1ccc2c(n1)n(C1CCN(Cc3c(C)n(C)c4ccccc34)CC1)c(=O)c(=O)n2C` [Example 7, 4-(1-((1,2-dimethyl-1H-indol-3-yl)methyl)piperidin-4-yl)-1,6-dimethyl-1,4-dihydropyrido[2,3-b]pyrazine-2,3-dione]: more than 5 µM; `Cn1c(=O)c(=O)n(C2CCN(Cc3ccc(OC(F)(F)F)cc3)CC2)c2ncc(Cl)cc21` [Example 28, 7-chloro-1-methyl-4-(1-(4-(trifluoromethoxy)benzyl)piperidin-4-yl)-1,4-dihydropyrido[2,3-b]pyrazine-2,3-dione]: less than 0.3 µM; `COc1ncccc1CN1CCC(n2c(=O)c(=O)n(C)c3ccc(C)nc32)CC1` [Example 15, 4-(1-((2-methoxypyridin-3-yl)methyl)piperidin-4-yl)-1,6-dimethyl-1,4-dihydropyrido[2,3-b]pyrazine-2,3-dione]: more than 5 µM. As for `Cn1c(=O)c(=O)n(C2CCN(Cc3ccc(OC(F)(F)F)cc3)CC2)c2nc(C#N)ccc21` [Example 11, 1-methyl-2,3-dioxo-4-(1-(4-(trifluoromethoxy)benzyl)piperidin-4-yl)-1,2,3,4-tetrahydropyrido[2,3-b]pyrazine-6-carbonitrile], the concentration for half-maximal inhibition (IC50) fell in the range of 0.3 to 5 µM. Next, `Cc1ccc2c(n1)n(C1CCN(Cc3ccccc3Cl)CC1)c(=O)c(=O)n2C` [Example 12, 4-(1-(2-chlorobenzyl)piperidin-4-yl)-1,6-dimethyl-1,4-dihydropyrido[2,3-b]pyrazine-2,3-dione]: 0.3 to 5 µM; `Cc1ccc2c(n1)n(C1CCN(Cc3cccc4cnccc34)CC1)c(=O)c(=O)n2C` [Example 20, 4-(1-(isoquinolin-5-ylmethyl)piperidin-4-yl)-1,6-dimethyl-1,4-dihydropyrido[2,3-b]pyrazine-2,3-dione]: 0.3 to 5 µM; `Cn1c(=O)c(=O)n(C2CCN(Cc3cccc(Cl)c3)CC2)c2nc(C#N)ccc21` [Example 25, 4-(1-(3-chlorobenzyl)piperidin-4-yl)-1-methyl-2,3-dioxo-1,2,3,4-tetrahydropyrido[2,3-b]pyrazine-6-carbonitrile]: 0.3 to 5 µM.

For the compound `Cc1nc2c(cc1Br)n(C)c(=O)c(=O)n2C1CCN(Cc2ccc(OC(F)(F)F)cc2)CC1` [Example 51, 7-bromo-1,6-dimethyl-4-(1-(4-(trifluoromethoxy)benzyl)piperidin-4-yl)-1,4-dihydropyrido[2,3-b]pyrazine-2,3-dione], the IC50 is less than 0.3 µM. Then `Cc1ccc2c(n1)n(C1CCN(Cc3cccc(Cl)c3)CC1)c(=O)c(=O)n2C` [Example 13, 4-(1-(3-chlorobenzyl)piperidin-4-yl)-1,6-dimethyl-1,4-dihydropyrido[2,3-b]pyrazine-2,3-dione], with less than 0.3 µM.
